Data published in paper PMC6685951, “Migration of Bacteriocins Across Gastrointestinal Epithelial and Vascular Endothelial Cells, as Determined Using In Vitro Simulations” (Scientific Reports, 2019).
Bridges are numbered along the chain shown (N, C = ends). Where no end group is shown, it is not given here.

Legend:
[1] = in vivo, po; cited from earlier work
L. monocytogenes EGDe [2] = assay: Antimicrobial activity of NHS-fluorescein labelled versus unlabelled peptides (zone sizes); format: cell-based, Listeria monocytogenes; settings: 50 µM, 20 µL spotted on LEB agar seeded with L. monocytogenes EGDe, overnight 37 °C
Description: HPLC purified stock solutions of nisin A, plantaricin 423 and bacST4SA were prepared by dissolving the peptides in sterile ultrapure water. Immediately before conjugating NHS-fluorescein to the peptides, a stock solution of NHS-fluorescein was prepared by dissolving 1 mg of reagent in 100 µL DMF. The amount of NHS-fluorescein to be added to each peptide was calculated using the Eqs (2) and (3):2 mLpeptide×mgpeptide/mLpeptide×mmolpeptide/mgpeptide×15mmolNHS/mmolpeptide=mmolNHS 3 mmolNHS×473.4(MWofNHS)/mmolNHS×100µLDMF/1mg=µLNHS
The calculated concentration of NHS-fluorescein was added to the peptides and incubated on ice for 2 h. Non-reacted NHS-fluorescein was removed by Sep-Pak C18 column chromatography. Plantaricin 423 and bacST4SA were eluted with 60% acetonitrile containing 0.1% TFA and nisin A with 40% acetonitrile containing 0.1% TFA. Peptides were freeze dried and resuspended in sterile ultrapure water. Concentrations of the labelled peptides were determined with the BCA assay and diluted to 50 µM. Labelled peptides were filtered through a 0.45 µm HVLP membrane and spotted (20 µL) onto LEB agar seeded with 1% L. monocytogenes EGDe (OD600 0.1). Plates were incubated overnight at 37 °C and the fluorescent peptides visualised under a UVP 3UV Ultraviolet Lamp. Inhibition zones were measured using ImageJ software and compared to those of non-labelled peptides.

L. monocytogenes EGDe [3] = format: cell-based, Listeria monocytogenes; settings: EGDe, 18 h
Description: The BCA assay was used according to the manufactures instructions to determine the concentration of the peptides. The MIC of the peptides was determined using a microtiter plate. Briefly, L. monocytogenes EGDe was inoculated into Listeria enrichment broth (LEB) and incubated overnight at 37 °C. The culture was inoculated into fresh LEB and incubated until an OD600 of 0.1 was reached. A series of peptide concentrations was prepared and 50 µL of each added per well, followed by the addition of 150 µL culture. The controls were ddH2O containing 0.1% (v/v) TFA with 150 µL culture or media. Microtiter plates were incubated at 37 °C and OD600 readings were taken at T0, T5 and T18 (hours). The MIC was determined as the lowest peptide concentration required to inhibit the growth of L. monocytogenes EGDe after 18 h.

## CC1(C)S[C@@H]2[C@H](NC(=O)[C@H](N)c3ccc(O)cc3)C(=O)N2[C@H]1C(=O)O [Amoxicillin]
[1]
  bioavailability: 74-92%

## O=C(N[C@H](CO)[C@H](O)c1ccc([N+](=O)[O-])cc1)C(Cl)Cl [Chloramphenicol]
[1]
  time to peak blood levels: ≤ 2 h

## CC1(C)S[C@@H]2[C@H](NC(=O)COc3ccccc3)C(=O)N2[C@H]1C(=O)O [penicillin V]
[1]
  bioavailability: 60-70%

## KYYGNGVSCNKKGCSVDWGKAIGIIGNNSAANLATGGAAGWKS (disulfide 9-14) [bacST4SA]
L. monocytogenes EGDe [2]
  decrease in activity of labelled versus unlabelled peptide (antimicrobial zone sizes): 21%
L. monocytogenes EGDe [3]
  MIC: 10 µM
